Patent publication US20200199102A1, “COMPOUNDS THAT PARTICIPATE IN COOPERATIVE BINDING AND USES THEREOF” (Revolution Medicines, Inc., priority 2017, published 2020)
Where a SMILES comes first, the peptide text is derived from it. [ ]: non-standard residue; d: D form. MeBmt = C/C=C/C[C@@H](C)[C@@H](O)[C@H](NC)C(=O)O; NMeF = CN[C@@H](Cc1ccccc1)C(=O)O; NMeI = CC[C@H](C)[C@H](NC)C(=O)O; NMeT = CN[C@H](C(=O)O)[C@@H](C)O; NMeL = CN[C@@H](CC(C)C)C(=O)O; dNMeV = CN[C@@H](C(=O)O)C(C)C; Tle = CC(C)(C)[C@H](N)C(=O)O; NMeNva = CCC[C@H](NC)C(=O)O; NMeV = CN[C@H](C(=O)O)C(C)C; NMeA = CN[C@@H](C)C(=O)O; dNMeA = CN[C@H](C)C(=O)O; Abu = CC[C@H](N)C(=O)O; Sar = CNCC(=O)O

Biological target: T1, Cyclophilin A (Homo sapiens, UniProt P62937)
T1 construct: made in house
T1 sequence (P62937 whole entry, species assumed): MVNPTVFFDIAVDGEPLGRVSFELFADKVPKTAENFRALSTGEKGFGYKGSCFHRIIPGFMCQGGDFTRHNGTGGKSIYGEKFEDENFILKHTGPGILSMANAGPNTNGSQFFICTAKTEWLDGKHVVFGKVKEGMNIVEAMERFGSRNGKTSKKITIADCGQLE
Experiment: AlphaLISA inhibition of binding of biotinylated Cyclosporin A to FLAG tagged Cyclophilin A
Conditions: for % signal: AlphaLISA signal; for % signal / % inhibition of CsA binding to Cyclophilin A: test concentration not given; for IC50: read-out: IC50 value of CsA binding to Cyclophilin A
Source text: The binding of compounds of the invention to Cyclophilin A can be determined using the following protocol.
This protocol utilizes Perkin Elmers AlphaLISA technology platform to detect cyclosporine analogues by measuring the inhibition of binding of biotinylated Cyclosporin A to FLAG tagged Cyclophilin A.
10×TBST Buffer (Boston BioProducts IBB-181), Biotinylated Cyclosporin A (in-house), FLAG tagged Cyclophilin A (in-house); anti-FLAG Donor beads (PerkinElmer AS103) and Streptavidin Acceptor beads (PerkinElmer AL125); Compounds in DMSO (in-house), Cyclosporin A (LC Labs Cat #C-6000).
Add 20 uL of 6 nM Biotinylated CsA working stock to each well of the 96-well plate. Add 1 uL of test compound (100% DMSO) to each well of the plate using the Janus MTD head and P20 tips (except control wells). Add 1 uL of DMSO to negative control wells and 1 uL of 500 uM Cyclosporin A solution to positive control wells. In the dark, add 20 uL of combined Donor/Acceptor beads to each well. Incubate in the dark for 30 minutes at room temperature. In the dark, add 10 uL of 25 nM Flag tagged CypA working stock to each well. Incubate in the dark for 60 minutes at room temperature. Protect plate from light until reading on Biotek Synergy2 Plate Reader; Alphalisa 96-well protocol (680 excitation/615 emission).

| SMILES | % signal | IC50 | % inhibition of CsA binding to Cyclophilin A |
| --- | --- | --- | --- |
| C/C=C/C[C@@H](C)[C@@H](O)[C@H]1C(=O)N[C@@H](CC)C(=O)N(C)CC(=O)N(C)[C@@H](CCC)C(=O)N[C@@H](C(C)(C)C)C(=O)N(C)[C@@H](C)C(=O)N[C@@H](CC(C)C)C(=O)N[C@H](C)C(=O)N(C)[C@@H](CC(C)C)C(=O)N(C)[C@@H](CC(C)C)C(=O)N(C)[C@@H](C(C)C)C(=O)N1C [Compound C78] (cyclo([MeBmt][Abu][Sar][NMeNva][Tle][NMeA]L[dA][NMeL][NMeL][NMeV])) | 1.42% | < 2000 nM | 98.58% |
| C/C=C/C[C@@H](C)[C@@H](O)[C@H]1C(=O)N[C@@H](CC)C(=O)N(C)CC(=O)N(C)[C@H](C(C)C)C(=O)N[C@@H](C(C)(C)C)C(=O)N(C)[C@@H](C)C(=O)N[C@@H](CC(C)C)C(=O)N[C@H](C)C(=O)N(C)[C@@H](CC(C)C)C(=O)N(C)[C@@H](CC(C)C)C(=O)N(C)[C@@H](C(C)C)C(=O)N1C [Compound C79] (cyclo([MeBmt][Abu][Sar][dNMeV][Tle][NMeA]L[dA][NMeL][NMeL][NMeV])) | 3.24% | < 2000 nM | 96.76% |
| C/C=C/C[C@@H](C)[C@@H](O)[C@H]1C(=O)N[C@@H](CC)C(=O)N(C)CC(=O)N(C)[C@@H](Cc2ccccc2)C(=O)N[C@@H](CC(C)C)C(=O)N(C)[C@@H](C)C(=O)N[C@@H](C)C(=O)N[C@H](C)C(=O)N(C)[C@@H](CC(C)C)C(=O)N(C)[C@@H](CC(C)C)C(=O)N(C)[C@@H](C(C)C)C(=O)N1C [Compound C12] (cyclo([MeBmt][Abu][Sar][NMeF]L[NMeA]A[dA][NMeL][NMeL][NMeV])) | 3.22% | < 2000 nM | 96.78% |
| C/C=C/C[C@@H](C)[C@@H](O)[C@H]1C(=O)N[C@@H](CC)C(=O)N(C)CC(=O)N(C)[C@@H](Cc2ccccc2)C(=O)N[C@@H](C(C)C)C(=O)N(C)[C@@H](CC(C)C)C(=O)N[C@@H](CC)C(=O)N[C@H](C)C(=O)N(C)[C@@H](CC(C)C)C(=O)N(C)[C@@H](CC(C)C)C(=O)N(C)[C@@H](C(C)C)C(=O)N1C [Compound C96] (cyclo([Abu][Sar][NMeF]V[NMeL][Abu][dA][NMeL][NMeL][NMeV][MeBmt])) | 5.00% | < 2000 nM | 95.00% |
| C/C=C/C[C@@H](C)[C@@H](O)[C@H]1C(=O)N[C@@H](CC)C(=O)N(C)CC(=O)N(C)[C@@H](CC(C)C)C(=O)N[C@@H](C(C)(C)C)C(=O)N(C)[C@@H](C)C(=O)N[C@@H](CC(C)C)C(=O)N[C@H](C)C(=O)N(C)[C@@H](CC(C)C)C(=O)N(C)[C@@H](CC(C)C)C(=O)N(C)[C@@H](C(C)C)C(=O)N1C [Compound C74] (cyclo([MeBmt][Abu][Sar][NMeL][Tle][NMeA]L[dA][NMeL][NMeL][NMeV])) | 4.92% | < 2000 nM | 95.08% |
| C/C=C/C[C@@H](C)[C@@H](O)[C@H]1C(=O)N[C@@H](CC)C(=O)N(C)CC(=O)N(C)[C@@H](Cc2ccccc2)C(=O)N[C@@H](C(C)C)C(=O)N(C)[C@@H](C)C(=O)N[C@@H](CC(C)C)C(=O)N[C@H](C)C(=O)N(C)[C@@H](CC(C)C)C(=O)N(C)[C@@H](CC(C)C)C(=O)N(C)[C@@H](C(C)C)C(=O)N1C [Compound C84] (cyclo([MeBmt][Abu][Sar][NMeF]V[NMeA]L[dA][NMeL][NMeL][NMeV])) | 6.81% | < 2000 nM | 93.19% |
| C/C=C/C[C@@H](C)[C@@H](O)[C@H]1C(=O)N[C@@H](CC)C(=O)N(C)CC(=O)N(C)[C@H](C)C(=O)N[C@@H](C(C)C)C(=O)N(C)[C@@H](C)C(=O)N[C@@H](CC(C)C)C(=O)N[C@H](C)C(=O)N(C)[C@@H](CC(C)C)C(=O)N(C)[C@@H](CC(C)C)C(=O)N(C)[C@@H](C(C)C)C(=O)N1C [Compound C83] (cyclo([MeBmt][Abu][Sar][dNMeA]V[NMeA]L[dA][NMeL][NMeL][NMeV])) | 0.65% | < 2000 nM |  |
| C/C=C/C[C@@H](C)[C@@H](O)[C@H]1C(=O)N[C@@H](CC)C(=O)N(C)CC(=O)N(C)[C@@H]([C@@H](C)CC)C(=O)N[C@@H](C)C(=O)N(C)CC(=O)N[C@@H](C)C(=O)N[C@H](C)C(=O)N(C)[C@@H](CC(C)C)C(=O)N(C)[C@@H](CC(C)C)C(=O)N(C)[C@@H](C(C)C)C(=O)N1C [Compound C17] (cyclo([MeBmt][Abu][Sar][NMeI]A[Sar]A[dA][NMeL][NMeL][NMeV])) | 17.17% | < 2000 nM | 82.83% |

Continued, values first:

| % signal | IC50 | % inhibition of CsA binding to Cyclophilin A | SMILES |
| --- | --- | --- | --- |
| 2.78% | < 2000 nM | 97.22% | C/C=C/C[C@@H](C)[C@@H](O)[C@H]1C(=O)N[C@@H](CC)C(=O)N(C)CC(=O)N(C)[C@@H](Cc2ccccc2)C(=O)N[C@@H](C(C)(C)C)C(=O)N(C)[C@@H](C)C(=O)N[C@@H](CC(C)C)C(=O)N[C@H](C)C(=O)N(C)[C@@H](CC(C)C)C(=O)N(C)[C@@H](CC(C)C)C(=O)N(C)[C@@H](C(C)C)C(=O)N1C [Compound C72] (cyclo([MeBmt][Abu][Sar][NMeF][Tle][NMeA]L[dA][NMeL][NMeL][NMeV])) |
| 31.08% | < 2000 nM | 68.92% | C/C=C/C[C@@H](C)[C@@H](O)[C@H]1C(=O)N[C@@H](CC)C(=O)N(C)CC(=O)N(C)CC(=O)N[C@@H](C)C(=O)N(C)CC(=O)N[C@@H](C)C(=O)N[C@H](C)C(=O)N(C)[C@@H](CC(C)C)C(=O)N(C)[C@@H](CC(C)C)C(=O)N(C)[C@@H](C(C)C)C(=O)N1C [Compound C21] (cyclo([MeBmt][Abu][Sar][Sar]A[Sar]A[dA][NMeL][NMeL][NMeV])) |
| 4.53% | < 2000 nM | 95.47% | C/C=C/C[C@@H](C)[C@@H](O)[C@H]1C(=O)N[C@@H](CC)C(=O)N(C)CC(=O)N(C)[C@@H]([C@@H](C)O)C(=O)N[C@@H](C(C)C)C(=O)N(C)[C@@H](C)C(=O)N[C@@H](CC(C)C)C(=O)N[C@H](C)C(=O)N(C)[C@@H](CC(C)C)C(=O)N(C)[C@@H](CC(C)C)C(=O)N(C)[C@@H](C(C)C)C(=O)N1C [Compound C87] (cyclo([MeBmt][Abu][Sar][NMeT]V[NMeA]L[dA][NMeL][NMeL][NMeV])) |
| 32.88% | < 2000 nM | 67.12% | C/C=C/C[C@@H](C)[C@@H](O)[C@H]1C(=O)N[C@@H](CC)C(=O)N(C)CC(=O)N(C)[C@H](C(C)C)C(=O)N[C@@H](C(C)C)C(=O)N(C)[C@@H](CC(C)C)C(=O)N[C@@H](CC(C)C)C(=O)N[C@H](C)C(=O)N(C)[C@@H](CC(C)C)C(=O)N(C)[C@@H](CC(C)C)C(=O)N(C)[C@@H](C(C)C)C(=O)N1C [Compound C55] (cyclo([MeBmt][Abu][Sar][dNMeV]V[NMeL]L[dA][NMeL][NMeL][NMeV])) |
| 0.15% | < 2000 nM | 99.85% | C/C=C/C[C@@H](C)[C@@H](O)[C@H]1C(=O)N[C@@H](CC)C(=O)N(C)CC(=O)N(C)[C@@H](C(C)C)C(=O)N[C@@H](C(C)C)C(=O)N(C)[C@@H](CC(C)C)C(=O)N[C@@H](CC)C(=O)N[C@H](C)C(=O)N(C)[C@@H](CC(C)C)C(=O)N(C)[C@@H](CC(C)C)C(=O)N(C)[C@@H](C(C)C)C(=O)N1C [Compound C101] (cyclo([Abu][Sar][NMeV]V[NMeL][Abu][dA][NMeL][NMeL][NMeV][MeBmt])) |
